Experimental data taken from patent publication US8618065B2 (Max-Planck-Gesellschaft zur Foerderung der Wissenschaften …, priority 2009, dated 2013).

Columns and labels:
OVA/alum-sensitized mice = assay: Asthma studies: ovalbumin sensitization, bronchial lavage, FACS; format: in vivo, mice (BALE/c line)
Procedure: An immune response to ovalbumin was provoked by administering ovalbumin together with aluminium hydroxide. The immune response can be tracked with the help of the T helper cells population (CD4+) which has migrated into the bronchial lining and the eosinophilic granulocytes which have migrated in.
Female mice (BALE/c line) were sensitized by intraperitoneal (i.p.) administration of 50 μg ovalbumin (OVA) dissolved in phosphate buffer (PBS) plus 100 μL aluminium hydroxide (alum) with a total volume of 200 μL per mouse on day 0.100 μg OVA in PBS (50 μL total volume) in each case was then administered intranasally to the OVA/alum-sensitized mice under mild anaesthesia (isoflurane) on days 7 to 10. From these animals groups were formed which additionally received on days 7, 9, and 11 either 250 μg Cs-103 in PBS (i.p.), PBS only (diluent) or no further addition (−). On day 12 all the animals were killed by CO2 exposure and cells of the bronchial tract were obtained by bronchial lavage (BAL) by means of a cannula introduced into the trachea washing three times each with 1 ml cold PBS. The obtained cells of the BAL were then double dyed (a) with Cy-Chrome-conjugated anti-mouse CD4-antibodies and (b) with FITC-conjugated anti-mouse CD62L-antibodies. The cells were then analyzed by means of FACS. Effector/Memory […] T cells were distinguished as CD4^+/CD62L^− lymphocytes and eosinophilic cells with the help of their scattered light properties (FSC/SSC).

[1] = Toxicity test: leukocyte count in blood and spleen; format: in vivo, mice; details: three doses of 250 μg on 1st, 3rd and 5th day, cell count on 6th day; FIGS. 4 and 5
Procedure: FIG. 4 the number of leukocytes in the blood before and after administering three doses (1st, 3rd and 5th day) of 250 μg Cs-103 to each animal (determination on the 6th day); and
FIG. 5 the number of leukocytes in the spleen before and after administering three doses (1st, 3rd and 5th day) of 250 μg Cs-103 to each animal (determination on the 6th day).
As the leukocyte count in blood and spleen increases in the case of inflammatory diseases, the number of these cells was used as toxicity marker. As FIGS. 4 and 5 show, the selected compound Cs-103 (after administering three doses of 250 μg Cs-103, on the 1st, 3rd and 5th day, and cell count determination on the 6th day) is harmless in this assay.

[2] = blood cells vs plasma; cited from earlier work

SMILES	number of eosinophilic granulocytes in the lung lavage fluid (OVA/alum-sensitized mice; 250 μg Cs-103, FIG. 3)	number of eosinophilic granulocytes which migrated through ovalbumin sensitization into the bronchial lining (OVA/alum-sensitized mice; 250 μg Cs-103, control: OVA-sensitized animals, FIG. 2)	number of CD4-positive T cells which migrated through ovalbumin sensitization into the bronchial lining (OVA/alum-sensitized mice; 250 μg Cs-103 i.p. on days 7, 9, 11, control: OVA-sensitized animals, FIG. 1)	leukocyte count in blood and spleen as toxicity marker [1]	concentration in blood cells relative to surrounding plasma [2]
CC[C@@H]1NC(=O)[C@H]([C@H](O)[C@H](C)CCN(CCC(=O)N[C@H](CCC(=O)O)C(=O)N[C@H](CCC(=O)O)C(=O)N[C@H](CCC(=O)O)C(=O)N[C@H](CCC(=O)O)C(=O)N[C@H](CCC(=O)O)C(=O)N[C@H](CCC(=O)O)C(=O)NCC(=O)O)C(C)=O)N(C)C(=O)[C@H](C(C)C)N(C)C(=O)[C@H](CC(C)C)N(C)C(=O)[C@H](CC(C)C)N(C)C(=O)[C@@H](C)NC(=O)[C@H](C)NC(=O)[C@H](CC(C)C)N(C)C(=O)[C@H](C(C)C)NC(=O)[C@H](CC(C)C)N(C)C(=O)CN(C)C1=O [Cs-103]	very significantly reduced	very significantly reduced	very significantly reduced	harmless	–
C/C=C/C[C@@H](C)[C@@H](O)[C@H]1C(=O)N[C@@H](CC)C(=O)N(C)CC(=O)N(C)[C@@H](CC(C)C)C(=O)N[C@@H](C(C)C)C(=O)N(C)[C@@H](CC(C)C)C(=O)N[C@@H](C)C(=O)N[C@H](COCCO)C(=O)N(C)[C@@H](CC(C)C)C(=O)N(C)[C@@H](CC(C)C)C(=O)N(C)[C@@H](C(C)C)C(=O)N1C [SDZ IMM 125]	–	–	–	–	approximately 8 ×
